Laboratory results from patent US20240109843A1, “BENZALDEHYDE COMPOUNDS WITH DIRECT POLYMER DESTABILIZING EFFECTS TO TREAT SICKLE CELL DISEASE” (VIRGINIA COMMONWEALTH UNIVERSITY, priority 2018, published 2024).

What was measured:
[1] = tested on: RBCs from donors with homozygous SCD; experiment: Oxygen-independent sickle inhibition in SS blood suspensions under anoxia (100% nitrogen); format: cell-based, human; conditions: anoxia
Method: To establish oxygen-independent sickle inhibition, the incubation chamber was subsequently opened and exposed to room air for 15 minutes to ensure complete re-oxygenation and reversal of the sickled cells to normal round cells. Reversal was confirmed by microscopy. The incubation chamber was then closed, and the assay was repeated with incubation in 100% nitrogen gas for 1 hour (for screening), or up to 2.5 h (for time-course studies), with collection and fixation of blood aliquots at defined intervals. Aliquot samples were again subjected to microscopic morphological analysis of bright field images to identify the proportion of sickled and non-sickled cells, and sickle inhibition calculated.

[2] = ADME / bioavailability assessment; conditions: in vivo
intracellular Hb = target: T1, intracellular Hb (Mus musculus, UniProt P01942); experiment: In vivo modification of intracellular Hb in wild-type mice; design: species or system C57BL/6 mice; conditions: IP 150 mg/kg, 30% PEG300, 6 h
T1 construct: from tissue; host or cells: blood (red cell lysates) of dosed C57BL/6 mice
Method: We tested in vivo pharmacologic (pharmacodynamics) effects of select PP compounds in C57BL/6 mice. The animals were treated with a single intraperitoneal (IP) (150 mg/kg body weight) dose of PP6, PP10, PP14, and TD7, which were formulated with 30% PEG300. Blood samples were obtained prior to treatment (0) and 1, 3 and 6 h post-treatment, via submandibular bleeding, and subjected to hemolysis using standard methods. Clarified lysates, free of cell debris and red blood cell ghosts were analyzed by cation-exchange HPLC to determine the levels of drug-modified hemoglobin (adducts); and to conduct oxygen equilibrium studies to determine degrees of shift in p50 values using methodologies described earlier for in vitro studies on human samples. In a subsequent follow-up experiment, a new excipient obtained from Catalent Pharma Solutions was also used to formulate PP14 and used for a single intraperitoneal (IP) and oral (150 mg/kg body weight) dose. Blood samples were obtained prior to treatment (0) and 1, 3 or 5 h post-treatment, via submandibular bleeding, and used to determine the levels of drug-modified hemoglobin (adducts); and to conduct oxygen equilibrium studies to determine degrees of shift in p50 values as described above.

sickle red blood cells = experiment: Antisickling study with human sickle blood under 2.5% oxygen; format: cell-based; conditions: Homo sapiens, Erythrocyte, sickle RBCs, 2.5% oxygen, read-out: sickling inhibition
Method: Blood suspensions from subjects with homozygous SCD (resuspended in Hemox™ buffer to a final hematocrit 20%) were incubated under air in the absence or presence of the compounds (0.5 mM, 1 mM and 2 mM) at 37° C. for 1 h to ensure that binding had attained equilibrium. The suspensions were then incubated under hypoxic conditions (2.5% oxygen/97.5% nitrogen) at 37° C. for 1 h. Aliquot samples were fixed with 2% glutaraldehyde solution without exposure to air, and then subjected to microscopic morphological analysis of bright field images (at 40× magnification) of single layer cells on an Olympus BX40 microscope fitted with an Infinity Lite B camera (Olympus), and the coupled Image Capture software. The residual samples were washed in phosphate-buffer saline, and hemolyzed in hypotonic lysis buffer for subsequent Hb-modification and oxygen equilibrium analyses.
The studies described above were conducted using normal whole blood. Next, we investigated whether the improvement in Hb oxygen affinity and the compounds sustained activity also translated to similar effects in SS blood from SCD patients. […] At 1 mM, PP8 and PP9 inhibited nearly 100% of sickling, while PP2, PP6, PP14 inhibited sickling by more than 70%. […] It is clear that the modifications of the present compounds has led to significant improvement in antisickling activity.

Hb [3] = target: T2, Hb (Homo sapiens, UniProt P69905); experiment: Time-dependent Hb-compound adduct formation (Hb modification) in normal whole blood; format: binding; design: Hemoglobin modification, studies using non-sickling AA blood; from tissue; host or cells: non-sickling (AA) human blood, red blood cells; conditions: 2 mM, normal adult blood, hematocrit 30%, 37° C.
Target sequence in this assay (P69905 2-142 limits assumed): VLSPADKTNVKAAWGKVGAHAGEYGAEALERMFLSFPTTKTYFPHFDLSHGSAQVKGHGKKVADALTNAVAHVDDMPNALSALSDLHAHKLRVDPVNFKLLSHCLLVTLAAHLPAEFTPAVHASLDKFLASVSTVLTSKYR
Target sequence in this assay (P68871 2-147 partner limits assumed): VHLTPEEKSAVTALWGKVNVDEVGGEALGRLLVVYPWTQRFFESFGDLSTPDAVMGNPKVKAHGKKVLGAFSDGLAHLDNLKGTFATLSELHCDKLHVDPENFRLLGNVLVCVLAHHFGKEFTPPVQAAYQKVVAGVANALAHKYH

Hb [4] = target: T2, Hb; experiment: Drug partitioning studies, fixed and unfixed Hb adducts in non-sickling AA blood; format: cell-based; design: Hemoglobin modification, studies using non-sickling AA blood; from tissue; host or cells: non-sickling (AA) human blood, red blood cells; conditions: 2 mM
Outline: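 Non-sickling blood was incubated with test molecules and lysed either in water (unfixed) or in 50 mM sodium borohydride (fixed). Hb adducts were quantified by cation-exchange HPLC as a fraction of total Hb. The partitioning ratio is fixed over unfixed modification and reflects intracellular Hb binding after RBC membrane permeation.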
Target sequence in this assay (P69905 2-142 limits assumed): as the sequence (P69905 2-142 limits assumed) above
Target sequence in this assay (P68871 2-147 partner limits assumed): as the sequence (P68871 2-147 partner limits assumed) above

Hb [5] = target: T2, Hb; experiment: Hb modification (drug-adduct formation) in SS blood suspensions by cation-exchange HPLC; format: binding; design: Blood suspensions from subjects with homozygous SCD; from tissue; host or cells: blood suspensions (20% hematocrit) from donors with homozygous SCD; lysates of the treated red cells; conditions: 2 mM, 4 biological replicates
Outline: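 Homozygous SCD blood at 20% hematocrit in Hemox buffer with glucose and BSA was incubated with compound (0-2 mM) 1 h at 37° C in air, then up to 2 h hypoxia (2.5% O2). Lysates, with or without 50 mM sodium borohydride reduction, were analysed by weak cation-exchange HPLC at A410 nm for Hb-drug adducts.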
Target sequence in this assay (P69905 2-142): as the sequence (P69905 2-142 limits assumed) above
Target sequence in this assay (P68871 with tags, fused parts or gaps E7V partner): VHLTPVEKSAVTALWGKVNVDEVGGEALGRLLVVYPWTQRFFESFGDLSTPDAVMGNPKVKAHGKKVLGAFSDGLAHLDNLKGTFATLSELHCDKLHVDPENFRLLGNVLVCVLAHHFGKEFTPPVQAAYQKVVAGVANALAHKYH

Hb [6] = target: T2, Hb; experiment: Oxygen equilibrium curve (OEC) studies with normal whole blood; format: cell-based; design: Hemoglobin modification, studies using non-sickling AA blood; from tissue; host or cells: non-sickling (AA) human blood, red blood cells; conditions: normal whole blood, 0.5, 1, 2 mM
Method: Oxygen equilibrium curve (OEC) studies to determine the effect of the compounds on Hb affinity for oxygen were conducted following standard procedure. Whole blood (30% hematocrit) was incubated in the absence or presence of compounds (0.5 mM, 1.0 mM and 2.0 mM) solubilized in DMSO. […] After equilibration, the sample was removed via syringe and aspirated into an ABL 700 series table top automated blood gas analyzer (Radiometer America, Inc., Westlake, OH) to determine total hemoglobin (tHb), hematocrit (Hct), pH, pCO2, partial pressure of oxygen (pO2), and the Hb-O2 saturation (sO2) values. The measured values of pO2 and sO2 at each oxygen saturation level were then subjected to nonlinear regression analysis using the software Scientist (Micromath, Salt Lake City UT) with the following equation: […]
Aromatic aldehydes are known to prevent hypoxia-induced Hb S polymerization by increasing the Hb affinity for oxygen. We therefore tested the PP compounds in a dose-dependent manner (0.5, 1, 2 mM) for their effect on Hb oxygen binding property. […] These findings confirmed that the potent in vitro activity previously seen in TD7 was at least conserved in the novel PP compounds.
Target sequence in this assay (P69905 2-142 limits assumed): as the sequence (P69905 2-142 limits assumed) above
Target sequence in this assay (P68871 2-147 partner limits assumed): as the sequence (P68871 2-147 partner limits assumed) above

T1 sequence (P01942 2-142 limits assumed): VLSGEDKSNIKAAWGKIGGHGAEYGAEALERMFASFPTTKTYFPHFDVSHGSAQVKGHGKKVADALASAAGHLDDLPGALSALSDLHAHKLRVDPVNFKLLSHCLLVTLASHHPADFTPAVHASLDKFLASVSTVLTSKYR
T1 sequence (P02088 2-147 partner limits assumed): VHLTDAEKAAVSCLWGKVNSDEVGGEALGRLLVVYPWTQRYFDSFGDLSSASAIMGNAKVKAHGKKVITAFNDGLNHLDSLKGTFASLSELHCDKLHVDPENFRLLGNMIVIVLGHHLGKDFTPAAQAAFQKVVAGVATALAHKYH

SMILES	polymer destabilizing effect / sickle inhibition in anoxia (in words) [1]	bioavailability [2]	modified Hb (intracellular Hb)	inhibition at 500 µM (sickle red blood cells; 0.5 mM)	inhibition at 1000 µM (sickle red blood cells; 1 mM)	loss of Hb modification activity at 24 hours (Hb [3])	Fixed Adducts (%) (Hb [4]; 6 biological replicates)	Unfixed Adduct (%) (Hb [4]; 6 biological replicates)	Partitioning Ratio (%) (Hb [4]; fixed relative to unfixed adducts)	Hb Modification (%) (Hb [5])	effect on Hb oxygen binding property (OEC) (Hb [6])
O=Cc1c(O)cccc1OCc1ccccc1 [Reference A, 2-(benzyloxy)-6-hydroxybenzaldehyde, reference compound]	exhibits potent polymer destabilizing effects	not bioavailable	–	–	–	–	–	–	–	–	–
COc1ccc(OCc2cccc(CO)n2)c(C=O)c1 [TD-7, reference compound]	–	–	1.5±0.3%	26%	47%	45%	80.9 ± 2.5%	73.5 ± 1.5%	103.7 ± 7.5%	72.5%	relatively similar potency as most of the best PP compounds
